The source made the active and inactive calls. The rule behind the calls is not given here.
Columns and labels:
Albumin [1] = biological target: T1, Albumin (Bos taurus, UniProt P02769); assay: Binding affinity to bovine serum albumin at 2 uM by circular dichroism spectroscopic analysis relative to control relative to control; conditions: cattle
[2] = biological target: Amyloid-beta precursor protein (Homo sapiens) (UniProt P05067); assay: Binding affinity to unordered beta sheet of amyloid beta (1 to 42) (unknown origin) by circular dichroism spectroscopic analysis
[3] = biological target: Amyloid-beta precursor protein (Homo sapiens) (UniProt P05067); assay: Binding affinity to unordered beta sheet of amyloid beta (1 to 42) (unknown origin) assessed as fluorescence enhancement at 0.5 uM by fluorescence spectra analysis relative to control
Albumin [4] = biological target: T1, Albumin; assay: Binding affinity to bovine serum albumin at 2 uM by circular dichroism spectroscopic analysis relative to control; conditions: cattle
Albumin [5] = biological target: T1, Albumin; assay: Binding affinity to bovine serum albumin at 2 uM by circular dichroism spectroscopic analysis; conditions: cattle, TDE = time-dependent effect
Albumin [6] = biological target: T1, Albumin; assay: Binding affinity to beta-sheet rich bovine serum albumin at 2 uM by circular dichroism spectroscopic analysis; conditions: cattle, TDE = time-dependent effect
[7] = biological target: Amyloid-beta precursor protein (Homo sapiens) (UniProt P05067); assay: Binding affinity to ordered beta sheet of amyloid beta (1 to 42) (unknown origin) assessed as fluorescence enhancement at 0.5 uM by fluorescence spectra analysis relative to control
[8] = biological target: Amyloid-beta precursor protein (Homo sapiens) (UniProt P05067); assay: Binding affinity to ordered beta sheet of amyloid beta (1 to 42) (unknown origin) by circular dichroism spectroscopic analysis

Chain of Amyloid-beta precursor protein (Homo sapiens) (P05067 whole entry): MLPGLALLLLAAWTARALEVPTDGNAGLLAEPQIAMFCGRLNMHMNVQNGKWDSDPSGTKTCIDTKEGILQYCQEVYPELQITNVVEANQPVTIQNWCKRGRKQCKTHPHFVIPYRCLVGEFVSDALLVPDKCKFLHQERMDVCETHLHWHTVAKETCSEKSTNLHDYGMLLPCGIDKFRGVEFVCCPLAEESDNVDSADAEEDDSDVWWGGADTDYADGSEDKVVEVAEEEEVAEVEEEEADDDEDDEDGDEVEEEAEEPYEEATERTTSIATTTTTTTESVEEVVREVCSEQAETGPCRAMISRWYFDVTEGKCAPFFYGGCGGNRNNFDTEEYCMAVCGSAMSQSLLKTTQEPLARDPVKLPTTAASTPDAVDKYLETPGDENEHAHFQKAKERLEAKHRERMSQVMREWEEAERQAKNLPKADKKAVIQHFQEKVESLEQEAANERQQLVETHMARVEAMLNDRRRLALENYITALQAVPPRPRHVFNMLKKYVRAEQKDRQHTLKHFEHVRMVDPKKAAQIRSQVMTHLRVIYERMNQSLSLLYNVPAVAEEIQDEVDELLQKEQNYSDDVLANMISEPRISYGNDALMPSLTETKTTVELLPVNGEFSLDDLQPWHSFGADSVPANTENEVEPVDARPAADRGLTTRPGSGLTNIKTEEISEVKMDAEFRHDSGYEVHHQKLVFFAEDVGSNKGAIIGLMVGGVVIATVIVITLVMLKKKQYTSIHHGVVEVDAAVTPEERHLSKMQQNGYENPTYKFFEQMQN
T1 sequence (P02769 whole entry): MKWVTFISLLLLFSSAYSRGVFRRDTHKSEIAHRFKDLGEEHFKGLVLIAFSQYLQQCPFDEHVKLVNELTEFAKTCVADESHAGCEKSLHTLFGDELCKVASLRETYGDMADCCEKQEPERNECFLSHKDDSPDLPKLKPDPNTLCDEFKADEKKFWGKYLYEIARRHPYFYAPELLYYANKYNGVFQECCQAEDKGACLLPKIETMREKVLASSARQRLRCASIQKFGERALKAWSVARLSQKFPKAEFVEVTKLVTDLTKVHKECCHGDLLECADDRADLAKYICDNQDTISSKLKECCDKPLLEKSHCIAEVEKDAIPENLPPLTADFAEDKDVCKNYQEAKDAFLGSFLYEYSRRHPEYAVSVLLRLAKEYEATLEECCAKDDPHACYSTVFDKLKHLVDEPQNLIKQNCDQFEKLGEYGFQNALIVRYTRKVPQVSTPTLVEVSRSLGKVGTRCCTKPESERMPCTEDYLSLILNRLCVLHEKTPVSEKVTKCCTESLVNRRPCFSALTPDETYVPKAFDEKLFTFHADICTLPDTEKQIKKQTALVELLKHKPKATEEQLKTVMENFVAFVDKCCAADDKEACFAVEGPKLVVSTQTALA

In the case of `F[B-]1(F)n2c(-c3ccccc3)cc(-c3ccccc3)c2N=C2C(c3ccccc3)=CC(c3ccccc3)=[N+]21`, the “fold change (FC)” value (Albumin [1]) is reported as 340, the Activity [2] is reported as “Active” and the fold change (FC) [3] is reported as 6. The “fold change (FC)” value (Albumin [4]) was 57, the Activity (Albumin [5]) was “tde” and the Activity (Albumin [6]) was “tde”. For the same compound, the fold change (FC) [7] was 16 and the Activity [8] was “Active”.

— ChEMBL document CHEMBL2331245, “Aza-BODIPY: improved synthesis and interaction with soluble Aβ1-42 oligomers” (Bioorg Med Chem Lett, 2013)
